The source of these data is patent US11878994B1, “Compositions for treatment of inflammation” (Metro International Biotech, LLC, priority 2021, dated 2024).

One test relates to Jurkat cells. The experiment in a line: NAD Elevation Assay (NAD Cellular Assay), Jurkat cells. The class given is cell-based. The settings on record: @ 1 mM, NAD normalized to total protein, multiple of NAD level in untreated cells. As for the experimental part: Compounds were tested in an NAD Cellular Assay according to the following protocol. Jurkat cells (50,000 per in 100 microliters of RPMI media) were added to wells of a 96 well, conical bottomed plate. The cells were allowed to recover for 3 h in culture. A 16 microliter aliquot of a 100 mM compound stock solution was diluted with 784 microliters of medium and 10% FBS to give 800 microliters of a 2 mM compound treatment solution. The compound treatment solution was added to the cells for a final concentration of 1 mM compound (n=6 wells for each compound.) As a parallel control, nicotinamide mononucleotide (NMN) was added to cells at a final concentration of 2 mM (n=6). The plates were incubated for 24 hours, then spun at 1000 rpm for 10 min. The medium was removed, then the cells were washed with fresh PBS and spun again. The PBS medium was removed, then the cells were washed one more time with PBS and spun. The liquid was removed from each well via pipette, avoiding touching the cell pellet. The cells were lysed with 75 microliters of 0.5% DTAB. […] The NAD concentration in each well was determined using a commercially available assay according to the kit instructions (e.g. Promega NAD/NADH-Glo™ Assay.) The Pierce BCA protein assay was run according to the kit instructions (e.g. ThermoScientific Catalog number 23225). […]

In another test the test system is NDF Cells. Kind of test: NAD Elevation Assay (NAD Cellular Assay), NDF cells. The class given is cell-based. The settings on record: @ 0.25 mM, multiple of NAD level in untreated cells. As for the experimental part: Compounds were tested in an NAD Cellular Assay according to the following protocol. Jurkat cells (50,000 per in 100 microliters of RPMI media) were added to wells of a 96 well, conical bottomed plate. The cells were allowed to recover for 3 h in culture. A 16 microliter aliquot of a 100 mM compound stock solution was diluted with 784 microliters of medium and 10% FBS to give 800 microliters of a 2 mM compound treatment solution. The compound treatment solution was added to the cells for a final concentration of 1 mM compound (n=6 wells for each compound.) As a parallel control, nicotinamide mononucleotide (NMN) was added to cells at a final concentration of 2 mM (n=6). The plates were incubated for 24 hours, then spun at 1000 rpm for 10 min. The medium was removed, then the cells were washed with fresh PBS and spun again. The PBS medium was removed, then the cells were washed one more time with PBS and spun. The liquid was removed from each well via pipette, avoiding touching the cell pellet. The cells were lysed with 75 microliters of 0.5% DTAB. 25 microliters of the lysate was added to each of two flat bottomed plates. One plate was used for a BCA protein assay (clear), and the other plate was used for the NAD assay (clear bottom, white walled). The NAD concentration in each well was determined using a commercially available assay according to the kit instructions (e.g. Promega NAD/NADH-Glo™ Assay.) The Pierce BCA protein assay was run according to the kit instructions (e.g. ThermoScientific Catalog number 23225). NAD levels were normalized to total protein and reported as a multiple of the NAD level in untreated cells.
Assays with other cell types were run similarly, using the appropriate compound and NMN dilutions. Cell counts were adjusted as necessary to provide a signal within the reading range of the protein and NAD assay kits.

As to `Cn1c(=O)c2c(ncn2CCOC(=O)c2ccc[n+]([C@@H]3O[C@H](CO)[C@@H](O)[C@H]3O)c2)n(C)c1=O.O=S(=O)([O-])C(F)(F)F` [Compound 2, 1-((2R,3R,4S,5R)-3,4-dihydroxy-5-(hydroxymethyl)tetrahydrofuran-2-yl)-3-((2-(1,3-dimethyl-2,6-dioxo-1,2,3,6-tetrahydro-7H-purin-7-yl)ethoxy)carbonyl)pyridin-1-ium trifluoromethanesulfonate], in the test on Jurkat cells, the “NAD Elevation Assay” value turned out to be 2.9× @ 1. On to `CCCn1cnc2c1c(=O)n(CCOC(=O)c1ccc[n+]([C@@H]3O[C@H](COP(=O)([O-])O)[C@@H](O)[C@H]3O)c1)c(=O)n2C` [Compound 7P, ((2R,3 S,4R,5R)-3,4-dihydroxy-5-(3-((2-(3-methyl-2,6-dioxo-7-propyl-2,3,6,7-tetrahydro-1H-purin-1-yl)ethoxy)carbonyl)pyridin-1-ium-1-yl)tetrahydrofuran-2-yl)methyl hydrogen phosphate], for which the “NAD Elevation Assay” value in the test on NDF Cells was found to be 1.9× @ 0.25. Turning to `Cn1cnc2c1c(=O)n(CCCOC(=O)c1ccc[n+]([C@@H]3O[C@H](COP(=O)([O-])O)[C@@H](O)[C@H]3O)c1)c(=O)n2C` [Compound 5P, ((2R,3S,4R,5R)-5-(3-((3-(3,7-dimethyl-2,6-dioxo-2,3,6,7-tetrahydro-1H-purin-1-yl)propoxy)carbonyl)pyridin-1-ium-1-yl)-3,4-dihydroxytetrahydrofuran-2-yl)methyl hydrogen phosphate], the “NAD Elevation Assay” value with NDF Cells was determined as 2.2× @ 0.25.

For the compound `Cn1c(=O)c2c(ncn2CC(=O)OCCCOC(=O)c2ccc[n+]([C@@H]3O[C@H](COP(=O)([O-])O)[C@@H](O)[C@H]3O)c2)n(C)c1=O` [Compound 6P, ((2R,3S,4R,5R)-5-(3-((3-(2-(1,3-dimethyl-2,6-dioxo-1,2,3,6-tetrahydro-7H-purin-7-yl)acetoxy)propoxy)carbonyl)pyridin-1-ium-1-yl)-3,4-dihydroxytetrahydrofuran-2-yl)methyl hydrogen phosphate], the “NAD Elevation Assay” value in the test on NDF Cells is reported as 2.0× @ 0.25.
